Where two headings read alike, the source gives them in different places.
Experiments:
CD38 = CD38 expression in tumor cells by flow cytometry after RA treatment; assay type: cell-based; conditions: 5 nM RA
Method: Table I lists the potential targets for anti-CD38 bound toxin treatment A number of different lymphoid tumor cell lines were treated with 5 nM all-trans-retinoic acid (RA). Afterwards, the expression of CD38 in untreated versus treated cell was measured by flow cytometry. […] The increase in CD38 expression ranges from 2.5 to 20 fold. Thus, retinoic acid can be used in all of these tumor types to increase the vulnerability of the tumor cells to immunotoxin treatment.

[1] = test system: HL-60 cells with a mutated RARα gene; experiment: MTS cell viability assay, retinoic acid-resistant HL60R cells; assay type: cell-based
Method: These cells are resistant to retinoic acid-induced expression of the CD38 antigen due to a point mutation in the retinoic acid receptor alpha (RARα) gene. The cell line was cultured with increasing concentrations of immunotoxin (in ng/ml) under different conditions.
HL-60 cells with a mutated RARα gene that renders the cells resistant to the effects of retinoic acid were treated with immunotoxin in either the presence or absence of 5 nM retinoic acid.

[2] = test system: myeloid and lymphoid leukemia cells; conditions: retinoic acid 10^−13 M; cited from earlier work
HL-60 cells = experiment: MTS cell viability assay, HL-60 cells; assay type: cell-based; conditions: 3 days, presence or absence of 5 nM retinoic acid
Method: HL-60 cells were incubated with either immunotoxin alone or in the presence of 5 nM retinoic acid (RA). Increasing concentrations of unconjugated IB4 monoclonal antibody were added to the cells incubated with immunotoxin and retinoic acid. After three days, the cells were assayed for viability with the MTS assay. Briefly, 6.5 mg/ml MTS solution [(3-(4,5-dimethylthiazol-2-yl)-5-(3-carboxymethoxyphenyl)-2-(4-sulfophenyl)-2H-tetrazolium] and 0.5 mM PMS (phenazine methosulfate) solution were mixed at a ratio of 20:1. 20 μl of the combined MTS/PMS solution was placed in each well of a 96 well plate containing samples of the cells to be tested. The plate was incubated for 1–4 hours at 37° C. in a 5% CO2 atmosphere, after which time, the amount of formazan produced by live cells from cellular reduction of MTS was measured by reading the absorbance at 490 nm. The results are shown in FIG. 2.
HL-60 cells were preincubated overnight in either the presence or absence of 5 nM all-trans-retinoic acid. The cells were washed twice and incubated in increasing concentrations of immunotoxin in either the presence or absence of IB4 unconjugated anti-CD38 MoAb. After three days, the cell were assayed for viability.
HL-60 cells were incubated for three days with increasing concentrations of either immunotoxin or gelonin in either the presence or absence of 5 nM retinoic acid. […]

Q: What does the source list for `CC1=C(/C=C/C(C)=C/C=C/C(C)=C/C(=O)O)C(C)(C)CCC1` [RA, all-trans-retinoic acid]?
A: CD38 after RA treatment (CD38; AML cells): 180 ± 20; CD38 after RA treatment (CD38; APL cells): 120 ± 30; CD38 after RA treatment (CD38; Lymphomas): 210 ± 10; CD38 after RA treatment (CD38; Myelomas): 180 ± 25; cell death (MTS) [1]: no appreciable cell death; induction of CD38 cell surface antigen expression [2]: 4 fold

Q: For gelonin, which “toxic effect (MTS cell viability)” value (HL-60 cells) is on record?
A: no toxic effect

Q: And the “cell death (MTS)” value ([1]; HL60R (mutated RARα), 3 days)?
A: no appreciable cell death

Source: patent publication US7223397B1, “Potentiation of anti-CD38-Immunotoxin cytotoxicity” (priority 1999, dated 2007)
